molecular target: T1, mGlyT-1b (Mus musculus, UniProt P28571); test: Glycine Uptake Inhibition Assay (mGlyT-1b); assay type: cell-based; conditions: [3H]-glycine uptake in Flp-in-CHO cells transfected with mGlyT-1b cDNA; read-out: IC50 (μM) at GlyT-1
T1 construct: expressed in transfected cells; host or cells: Flp-in-CHO (Invitrogen Cat no R758-07), stably transfected
T1 sequence (P28571 1-651 isoform P28571-2): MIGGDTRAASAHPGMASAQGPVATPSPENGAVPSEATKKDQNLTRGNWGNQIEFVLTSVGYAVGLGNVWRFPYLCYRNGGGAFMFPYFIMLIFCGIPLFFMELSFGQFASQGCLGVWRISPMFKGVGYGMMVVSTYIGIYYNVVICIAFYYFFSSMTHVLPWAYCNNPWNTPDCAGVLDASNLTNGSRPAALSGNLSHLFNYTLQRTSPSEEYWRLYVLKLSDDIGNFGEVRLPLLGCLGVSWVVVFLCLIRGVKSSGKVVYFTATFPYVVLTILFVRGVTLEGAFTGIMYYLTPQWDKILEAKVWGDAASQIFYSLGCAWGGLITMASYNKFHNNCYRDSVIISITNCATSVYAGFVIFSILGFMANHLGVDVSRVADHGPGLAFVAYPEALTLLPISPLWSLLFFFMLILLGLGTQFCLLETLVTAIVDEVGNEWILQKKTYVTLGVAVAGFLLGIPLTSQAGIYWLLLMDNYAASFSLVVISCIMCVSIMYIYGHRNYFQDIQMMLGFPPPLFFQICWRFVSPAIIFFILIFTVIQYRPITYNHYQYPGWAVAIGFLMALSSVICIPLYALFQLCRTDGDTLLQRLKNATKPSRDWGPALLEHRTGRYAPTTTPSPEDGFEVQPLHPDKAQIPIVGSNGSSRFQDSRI
Procedure: DMEM complete medium: Nutrient mixture F-12 (Gibco Life-technologies), fetal bovine serum (FBS) 5%, (Gibco life technologies), Penicillin/Streptomycin 1% (Gibco life technologies), Hygromycin 0.6 mg/ml (Gibco life technologies), Glutamine 1 mM Gibco life technologies)
Uptake buffer (UB): 150 mM NaCl, 10 mM Hepes-Tris, pH 7.4, 1 mM CaCl2, 2.5 mM KCl, 2.5 mM MgSO4, 10 mM (+) D-glucose.
Flp-in™-CHO (Invitrogen Cat no R758-07) cells stably transfected with mGlyT1b cDNA.
Glycine Uptake Inhibition Assay (mGlyT-1b)
On day 1 mammalian cells, (Flp-in™-CHO), transfected with mGlyT-1b cDNA, were plated at the density of 40,000 cells/well in complete F-12 medium, without hygromycin in 96-well culture plates. On day 2, the medium was aspirated and the cells were washed twice with uptake buffer (UB). The cells were then incubated for 20 min at 22° C. with either (i) no potential competitor, (ii) 10 mM non-radioactive glycine, (iii) a concentration of a potential inhibitor. A range of concentrations of the potential inhibitor was used to generate data for calculating the concentration of inhibitor resulting in 50% of the effect (e.g. IC50, the concentration of the competitor inhibiting glycine uptake of 50%). A solution was then immediately added containing [^3H]-glycine 60 nM (11-16 Ci/mmol) and 25 μM non-radioactive glycine. The plates were incubated with gentle shaking and the reaction was stopped by aspiration of the mixture and washing (three times) with ice-cold UB. The cells were lysed with scintillation liquid, shaken 3 hours and the radioactivity in the cells was counted using a scintillation counter.

Compound	IC50 [µM]
CC(C)Sc1ccc(S(C)(=O)=O)cc1C(=O)N1CCN(c2ncc(C(F)(F)F)cc2F)CC1 [Example 3, [4-(3-Fluoro-5-trifluoromethyl-pyridin-2-yl)-piperazin-1-yl]-(2-isopropylsulfanyl-5-methanesulfonyl-phenyl)-methanone]	0.03
CC(C)Sc1ccc(S(C)(=O)=O)cc1C(=O)N1CCN(c2ccc(S(C)(=O)=O)cc2F)CC1 [Example 6, [4-(2-Fluoro-4-methanesulfonyl-phenyl)-piperazin-1-yl]-(2-isopropylsulfanyl-5-methanesulfonyl-phenyl)-methanone]	0.04
CCSc1ccc(S(C)(=O)=O)cc1C(=O)N1CCN(c2ncc(C(F)(F)F)cc2F)CC1 [Example 7, (2-Ethylsulfanyl-5-methanesulfonyl-phenyl)-[4-(3-fluoro-5-trifluoromethyl-pyridin-2-yl)-piperazin-1-yl]-methanone]	0.08
CS(=O)(=O)c1ccc(SCC(F)(F)F)c(C(=O)N2CCN(c3ncc(C(F)(F)F)cc3F)CC2)c1 [Example 11, [4-(3-Fluoro-5-trifluoromethyl-pyridin-2-yl)-piperazin-1-yl]-[5-methanesulfonyl-2-(2,2,2-trifluoro-ethylsulfanyl)-phenyl]-methanone]	0.07
CS(=O)(=O)c1ccc(N2CCN(C(=O)c3cc(S(C)(=O)=O)ccc3SCC(F)(F)F)CC2)c(F)c1 [Example 14, [4-(2-Fluoro-4-methanesulfonyl-phenyl)-piperazin-1-yl]-[5-methanesulfonyl-2-(2,2,2-trifluoro-ethylsulfanyl)-phenyl]-methanone]	0.1
CC(C)CSc1ccc(S(C)(=O)=O)cc1C(=O)N1CCN(c2ccc(S(C)(=O)=O)cc2F)CC1 [Example 18, [4-(2-Fluoro-4-methanesulfonyl-phenyl)-piperazin-1-yl]-(2-isobutylsulfanyl-5-methanesulfonyl-phenyl)-methanone]	0.1
CC(=O)c1ccc(N2CCN(C(=O)c3cc(S(C)(=O)=O)ccc3SC(C)C)CC2)c(F)c1 [Example 22, 1-{3-Fluoro-4-[4-(2-isopropylsulfanyl-5-methanesulfonyl-benzoyl)-piperazin-1-yl]-phenyl}-ethanone]	0.015
CC(C)Sc1ccc(S(C)(=O)=O)cc1C(=O)N1CCN(c2ccc([N+](=O)[O-])cc2Cl)CC1 [Example 23, [4-(2-Chloro-4-nitro-phenyl)-piperazin-1-yl]-(2-isopropylsulfanyl-5-methanesulfonyl-phenyl)-methanone]	0.018
CNS(=O)(=O)c1ccc(SC(C)C)c(C(=O)N2CCN(c3ccc(C(F)(F)F)cc3)CC2)c1 [Example 25, 4-Isopropylsulfanyl-N-methyl-3-[4-(4-trifluoromethyl-phenyl)-piperazine-1-carbonyl]-benzenesulfonamide]	0.006
CC(C)Sc1ccc([N+](=O)[O-])cc1C(=O)N1CCN(c2ccc(C(F)(F)F)cc2)CC1 [Example 27, (2-Isopropylsulfanyl-5-nitro-phenyl)-[4-(4-trifluoromethyl-phenyl)-piperazin-1-yl]-methanone]	0.007
